Measurements published in the Biogen ADME set (Fang et al. 2023).
≈ marks a conversion by molar mass, not a printed value.

Details: for aqueous solubility: pH 6.8

Row | SMILES | MDR1-MDCK efflux ratio | intrinsic clearance, human liver microsomes | intrinsic clearance, rat liver microsomes | aqueous solubility | fraction unbound, human plasma | fraction unbound, rat plasma
1 | Cc1nn(Cc2cccc(Br)c2)c(C)c1C(=O)O | 1.58 | ≤ 4.74 mL/min/kg | ≤ 10.7 mL/min/kg | 51.4 µg/mL (≈ 166 µM) | – | –
2 | CCOc1cccc(CNCCc2c[nH]c3ccccc23)c1 | 0.628 | 90.8 mL/min/kg | 1330 mL/min/kg | 73 µg/mL (≈ 248 µM) | – | –
3 | Cn1ccc(C(=O)NCCc2cc3nc(-c4ccncc4)ccn3n2)n1 | – | 8.83 mL/min/kg | 105 mL/min/kg | – | – | –
4 | O=C(Nc1nncs1)c1cccnc1 | 1.04 | ≤ 4.74 mL/min/kg | ≤ 10.7 mL/min/kg | 44.3 µg/mL (≈ 215 µM) | – | –
5 | CCNC(=O)c1ccc(CS(C)(=O)=O)cc1 | 2.62 | ≤ 4.74 mL/min/kg | 20.6 mL/min/kg | 40.9 µg/mL (≈ 169 µM) | – | –
6 | CCOc1ccc(Oc2ccc(OCc3cc(F)ccc3F)cc2)c(N)c1 | – | 8.79 mL/min/kg | 104 mL/min/kg | – | – | –
7 | Nc1nc(N)c2c(OCC3CCN(Cc4c(Cl)cccc4Cl)CC3)cccc2n1 | 0.816 | – | – | 0.4 µg/mL (≈ 0.925 µM) | – | –
8 | Cc1sc2nc(CN3CCCC3)nc(N)c2c1C | 17.6 | ≤ 4.74 mL/min/kg | 2760 mL/min/kg | 44.6 µg/mL (≈ 170 µM) | – | –
9 | COc1ccc(CC(=O)Nc2ccc(F)nc2)cc1 | 0.624 | 16.5 mL/min/kg | 76.5 mL/min/kg | – | – | –
10 | O=C(O)c1cnc(/C=C/c2csc(-c3ccsc3)n2)s1 | 0.832 | 7.87 mL/min/kg | 59.3 mL/min/kg | 77.5 µg/mL (≈ 242 µM) | – | –
11 | O=c1[nH]c2ccccc2n1C1CCN(Cc2nc(Cc3ccccc3)no2)CC1 | – | 69.7 mL/min/kg | 857 mL/min/kg | – | – | –
12 | O=S(=O)(NCCC(c1ccccc1)c1ccccc1)c1ccc(Cl)cc1 | – | 396 mL/min/kg | 9320 mL/min/kg | – | – | –
13 | CCOc1cc2nn(CCC(C)(C)O)cc2cc1NC(=O)c1cccc(C(F)F)n1 | 11 | ≤ 4.74 mL/min/kg | ≤ 10.7 mL/min/kg | 3.55 µg/mL (≈ 8.48 µM) | 0.0126 | 0.0186
14 | Cc1nnc(-c2ccccc2NCc2ccsc2)o1 | 0.204 | – | – | 0.93 µg/mL (≈ 3.43 µM) | – | –
15 | CN(CCc1ccccc1)C(=O)CC#N | 0.666 | ≤ 4.74 mL/min/kg | ≤ 10.7 mL/min/kg | 32.5 µg/mL (≈ 161 µM) | – | –
16 | CC1(C)Oc2ccc(Cl)cc2[C@@H]2O[C@@H]3CCNC[C@@H]3C[C@H]21 | 11.3 | ≤ 4.74 mL/min/kg | 103 mL/min/kg | 42.5 µg/mL (≈ 138 µM) | – | –
17 | Cn1c(NC(=O)C2CC2c2ccc(Cl)cc2)nc2ccccc21 (configuration not stated) | – | – | – | 0.3 µg/mL (≈ 0.921 µM) | – | –
18 | N#Cc1ccccc1CN1C(=O)CCC1=O | – | ≤ 4.74 mL/min/kg | 20.4 mL/min/kg | – | – | –
19 | CN(CC1(CO)CCCC1)C(=O)CCN1CCCCC1=O | 21.2 | ≤ 4.74 mL/min/kg | 113 mL/min/kg | – | – | –
20 | C#CCNC(=O)c1ccc(OC)c(OC)c1 | – | – | – | 26.9 µg/mL (≈ 123 µM) | – | –

Row | SMILES | MDR1-MDCK efflux ratio | intrinsic clearance, human liver microsomes | intrinsic clearance, rat liver microsomes | aqueous solubility | fraction unbound, human plasma | fraction unbound, rat plasma
21 | CN(CCNC(=O)NC1CCOCC1)C1CCCC1 | 18.2 | ≤ 4.74 mL/min/kg | 184 mL/min/kg | – | – | –
22 | Cc1noc(NCc2cccc(-c3cccnc3)c2)n1 | 0.752 | 20.5 mL/min/kg | 157 mL/min/kg | 34.6 µg/mL (≈ 130 µM) | – | –
23 | c1ccc(-n2cc(CNc3ncccn3)cn2)cc1 | 0.497 | 30.8 mL/min/kg | 181 mL/min/kg | 41.1 µg/mL (≈ 164 µM) | – | –
24 | COc1ccc(F)cc1-c1ccc(-c2nnco2)cc1 | – | 23.8 mL/min/kg | 333 mL/min/kg | – | – | –
25 | O=C(Cc1c(F)cccc1Cl)Nc1cccc2cnccc12 | 0.889 | 62.6 mL/min/kg | 288 mL/min/kg | 2.09 µg/mL (≈ 6.64 µM) | – | –
26 | c1cc(-c2noc(CN3CCOCC3)n2)ccn1 | 0.732 | ≤ 4.74 mL/min/kg | 29.8 mL/min/kg | – | – | –
27 | CC(C)(CO)NCCCCn1c2ccccc2c2ccccc21 | 7.39 | 54.2 mL/min/kg | 163 mL/min/kg | 31.8 µg/mL (≈ 102 µM) | – | –
28 | C#CCNC(=O)CN1C(=O)c2ccccc2C1=O | – | – | – | 38.9 µg/mL (≈ 161 µM) | – | –
29 | Cc1cc(OCc2ccnc(Cl)c2)nnc1C | – | ≤ 4.74 mL/min/kg | 51.6 mL/min/kg | – | – | –
30 | CC(C)(C)C[C@@H]1COCc2nc(OCc3ccccn3)cc(=O)n21 | – | – | – | 62.1 µg/mL (≈ 189 µM) | – | –
31 | NC(=O)Cn1ccc(-c2ccccc2)n1 | 0.792 | ≤ 4.74 mL/min/kg | ≤ 10.7 mL/min/kg | 40.5 µg/mL (≈ 201 µM) | – | –
32 | Cc1ccc(NC(=O)c2cccc(N(C)C)c2)cc1NC(=O)c1ccc(O)cc1 | 16.6 | 45.4 mL/min/kg | 307 mL/min/kg | 3.3 µg/mL (≈ 8.47 µM) | – | –
33 | Cc1ccn(-c2ccc3[nH]c4c(c3c2)CCCC4=O)n1 | – | 137 mL/min/kg | 512 mL/min/kg | 9.65 µg/mL (≈ 36.4 µM) | – | –
34 | c1cnc(NCc2cccc3cnccc23)nc1 | – | 60.5 mL/min/kg | 178 mL/min/kg | – | – | –
35 | CC(C)CC(=O)Nc1ccc(Cl)c(C#N)c1 | – | – | – | 24.1 µg/mL (≈ 102 µM) | – | –
36 | Cc1nn(C(F)F)c(C)c1CC(=O)NCCNC(C)(C)C | 20.6 | ≤ 4.74 mL/min/kg | 253 mL/min/kg | – | – | –
37 | CC(C)N(C(=O)Cn1cccc2cc(-c3ccco3)nc1-2)C(C)C | 1.81 | 373 mL/min/kg | 1790 mL/min/kg | – | – | –
38 | Cc1ccc(-c2ccc(=O)n(Cc3ccncc3)n2)cc1 | 0.617 | 41.7 mL/min/kg | 2400 mL/min/kg | 42.6 µg/mL (≈ 154 µM) | – | –
39 | Fc1cncc(-c2cnc(NCc3ccc(Cl)c(F)c3)nc2)c1 | 0.339 | 14.9 mL/min/kg | 104 mL/min/kg | 3.2 µg/mL (≈ 9.62 µM) | – | –
40 | Cc1nc2ccccn2c1CC(=O)NCCCSc1ccccc1 | 26.2 | 77.8 mL/min/kg | 1260 mL/min/kg | 42.3 µg/mL (≈ 125 µM) | – | –

The remaining lines, values ahead:

Row | MDR1-MDCK efflux ratio | intrinsic clearance, human liver microsomes | intrinsic clearance, rat liver microsomes | aqueous solubility | fraction unbound, human plasma | fraction unbound, rat plasma | SMILES
41 | – | ≤ 4.74 mL/min/kg | ≤ 10.7 mL/min/kg | 59.4 µg/mL (≈ 219 µM) | – | – | CC(=O)NCc1ncc(-c2ccccc2C(=O)O)cn1
42 | 1.99 | 7.84 mL/min/kg | 17.7 mL/min/kg | 39.5 µg/mL (≈ 79.1 µM) | – | – | CC1CCN([C@H](c2ccc(F)cc2)c2ccc([C@@H](C)C(=O)O)cc2-c2ccc(C(F)(F)F)cc2)CC1
43 | 6.7 | 27.6 mL/min/kg | 289 mL/min/kg | 49.4 µg/mL (≈ 139 µM) | – | – | CCCn1ncc2ccc(C3CCCN(CC(=O)N4CCCC4)C3)nc21 (configuration not stated)
44 | 178 | ≤ 4.74 mL/min/kg | ≤ 10.7 mL/min/kg | – | – | – | CN1CCc2nc(C(=O)N[C@H]3C[C@@H](C(=O)N(C)C)CC[C@@H]3NC(=O)C(=O)Nc3ccc(Cl)cn3)sc2C1
45 | 4.26 | 61.9 mL/min/kg | 882 mL/min/kg | 52.6 µg/mL (≈ 161 µM) | – | – | O=C(NCCc1csc(N2CCCC2)n1)N1CCSCC1
46 | 16.9 | 158 mL/min/kg | 2090 mL/min/kg | 26.9 µg/mL (≈ 75.9 µM) | – | – | C=C(C)COc1cccc(C(=O)NCc2nncn2C2CCCCC2)c1
47 | 1.61 | 120 mL/min/kg | 2750 mL/min/kg | – | – | – | CSC1(CNC(=O)N2CCC=C(c3ccccc3)C2)CCOCC1
48 | – | – | – | 69.8 µg/mL (≈ 206 µM) | – | – | O=C(c1ccco1)N1CCCC(C(=O)N2CCc3ccccc3C2)C1 (configuration not stated)
49 | 3.89 | ≤ 4.74 mL/min/kg | 51.1 mL/min/kg | – | – | – | Cn1cc(C(C)(C)NC(=O)C#Cc2ccc3c(c2)OCO3)cn1
50 | 47.2 | 5.54 mL/min/kg | 181 mL/min/kg | – | – | – | C[C@]1(O)CN(C(=O)Cn2cnc3ccccc32)CC[C@@H]1Oc1ccccc1
51 | 0.882 | 144 mL/min/kg | 1500 mL/min/kg | 73.9 µg/mL (≈ 228 µM) | – | – | Cc1cccc(N2CCN(C(=O)c3cncnc3C(C)C)CC2)c1
52 | 2.76 | ≤ 4.74 mL/min/kg | ≤ 10.7 mL/min/kg | 35.7 µg/mL (≈ 136 µM) | – | – | COc1ccc(CCC(=O)N2CCCNCC2)cc1
53 | 1.8 | 12.4 mL/min/kg | 1100 mL/min/kg | 54.4 µg/mL (≈ 148 µM) | – | – | Cc1ccc(NS(C)(=O)=O)c(C(=O)N(C)c2ccc3ccccc3c2)c1
54 | 2.55 | 61.6 mL/min/kg | 2220 mL/min/kg | – | – | – | CCOc1ccc(CN[C@@H]2CCC[C@H]2Cc2cc(C)no2)cc1OC
55 | 0.816 | 93.3 mL/min/kg | 1960 mL/min/kg | 54.9 µg/mL (≈ 169 µM) | – | – | Fc1cccc(OC2CCN(Cc3nc4ccccc4[nH]3)CC2)c1
56 | 54.7 | ≤ 4.74 mL/min/kg | ≤ 10.7 mL/min/kg | 37.3 µg/mL (≈ 137 µM) | – | – | CCn1nccc1-c1cc(CC2CCNCC2)ncn1
57 | 38.8 | 7.28 mL/min/kg | 153 mL/min/kg | – | – | – | CC(=O)N1CCN([C@H]2CCN(C(=O)c3cc4cc(C)ccc4o3)CC[C@@H]2O)CC1
58 | 7.27 | 256 mL/min/kg | 1670 mL/min/kg | 1.63 µg/mL (≈ 4.07 µM) | – | – | O=C(Cn1nc2n(c1=O)-c1ccccc1C1=NCCN12)N1CCCc2ccccc21
59 | 34.9 | – | – | 0.17 µg/mL (≈ 0.325 µM) | – | – | C=CC(=O)N1CCC[C@@H](n2nc(-c3cccc(C(=O)Nc4ccc(C(C)C)c(C)c4)c3)c3c(N)ncnc32)C1
60 | 10.8 | 64.4 mL/min/kg | 499 mL/min/kg | – | – | – | CC(=O)NC1CCC(NCCSc2ccc(C)cc2)CC1 (configuration not stated)
